Results: patent publication US20110160251A1, “ANIMAL ECTOPARASITE CONTROL COMPOSITION” (priority 2009, published 2011)

Test system: Haemaphysalis longicornis
Assay: Test Example 6: filter paper contact test, fatality of ticks, compound in single solvent
Type: in vivo
Details: 63.6 mg/ml, 0.2 ml on filter paper (treatment amount 2000 mg/m^2), after 24 hours at 25° C.; for Fatality rate of tick (%) Example 2 diisobutyl adipate: solvent diisobutyl adipate; for Fatality rate of tick (%) Example 1 diisopropyl adipate: solvent diisopropyl adipate; for Fatality rate of tick (%) Comparative Example 1 Propylene Carbonate: solvent propylene carbonate
Protocol: The halogen-containing organosulfur compound (33) or (35) was dissolved in a solvent such that the concentration of the halogen-containing organosulfur compound was 63.6 mg/ml to a test solution. A filter paper was put on the bottom face of a glass petri dish with 7 cm diameter and treated with 0.2 ml of the test solution (treatment amount: 2000 mg/m^2). On the filter paper, 10 Haemaphysalis longicornis were released and allowed to contact the filter paper. The glass petri dish was allowd to stand still at 25° C. After 24 hours, fatalities of the insects were observed.

| Structure (SMILES) | Fatality rate of tick (%) Example 2 diisobutyl adipate | Fatality rate of tick (%) Example 1 diisopropyl adipate | Fatality rate of tick (%) Comparative Example 1 Propylene Carbonate |
| --- | --- | --- | --- |
| CON=C1CCC(C(C#N)S(=O)(=O)CCC(F)(F)F)CC1 (stereo not drawn) [Compound (33), 2-[4-(methoxyimino)cyclohexyl]-2-(3,3,3-trifluoropropylsulfonyl)acetonitrile] | 85% | 100% | 25% |
| CCON=C1CCC(C(C#N)S(=O)(=O)CCC(F)(F)F)CC1 (stereo not drawn) [Compound (35), 2-[4-(ethoxyimino)cyclohexyl]-2-(3,3,3-trifluoropropylsufonyl)acetonitrile] | 80% | 100% | 20% |
